Data from patent US9187421B2, “Etomidate analogues that do not inhibit adrenocortical steroid synthesis” (THE GENERAL HOSPITAL CORPORATION, priority 2009, dated 2015).
Entries after “also recorded” stand apart in the source; their conditions may differ.

Tests used:
rats [1] = assay: Rat hemodynamics (mean blood pressure); conditions: IV; for effect on mean blood pressure, comparison of three anesthetics (FIG. 7A): twice ED50 for LORR (8 mg/kg propofol, 2 mg/kg etomidate, 14 mg/kg carboetomidate); for effect on mean blood pressure relative to DMSO vehicle (FIG. 7B): 14 mg/kg carboetomidate, 2 mg/kg etomidate (2×ED50)
Protocol: Femoral arterial catheters, tunneled between the scapulas, were preimplanted by the vendor (Charles River Laboratories). Animals were fully recovered from the placement procedure on arrival.
On the day of study, after weighing and lateral tail vein IV catheter placement, rats were restrained in the acrylic tube with a tail exit port and allowed to acclimate for approximately 10 to 20 min before data collection. […] All data were acquired and analyzed using LabView Software (version 8.5 for Macintosh OS X; National Instruments).
Carboetomidate (40 mg/ml) dissolved in DMSO, etomidate (5.7 mg/ml) dissolved in DMSO, or DMSO vehicle alone as a control was administered through the tail vein catheter followed by approximately 1-ml normal saline flush.
The average mean blood pressure was calculated at each 30-second epoch during this study period.

rats [2] = assay: Loss of righting reflex in rats after IV bolus; type: in vivo, Sprague-Dawley rats; conditions: for anesthetic toxicity in rats: highest doses; for slope of duration of anesthesia versus logarithm of anesthetic dose: time to spontaneous righting; for onset time for LORR / onset time for LORR, range: IV, equihypnotic doses 4×ED50 (28 mg/kg carboetomidate, 4 mg/kg etomidate); for time to LORR after IV bolus (in words): doses sufficient to produce LORR
Protocol: Rats: Rats were briefly restrained in a 3-inch diameter, 9-inch long acrylic chamber with a tail exit port. The desired dose of carboetomidate in dimethyl sulfoxide (DMSO; typically at 40 mg/ml) was injected through a lateral tail vein catheter followed by an approximately 1-ml normal saline flush. After injection, rats were removed from the restraint device and turned supine. […] A stopwatch was used to measure the duration of LORR, which was defined as the time from carboetomidate injection until the animal spontaneously righted itself. The ED50 for LORR on bolus administration was determined from the dose dependence of LORR using the method of Waud.26 Onset time for LORR was determined separately by injecting rats with 28 mg/kg of carboetomidate (40 mg/ml in DMSO) or 4 mg/kg of etomidate (5.7 mg/ml in DMSO) through a lateral tail vein catheter followed by an approximately 1-ml normal saline flush. After injection, rats were immediately removed from the restraint device and repeatedly turned supine until they no longer spontaneously righted. The onset time was defined as the time from injection until LORR occurred.
Etomidate or carboetomidate was administered to Sprague Dawley rats as an IV bolus into their tail veins. […] LORR was defined as the time from drug injection until the animal spontaneously righted itself. The ED50 for LORR upon bolus anesthetic administration was determined from the anesthetic dose-dependence of LORR.

Xenopus laevis tadpoles [3] = conditions: literature (Husain et al. 2003); cited from earlier work
[4] = molecular target: T1, human α1β2γ2L GABAA receptors (Homo sapiens, UniProt P14867+P47870); conditions: 4 μM etomidate, inventors' previous study; cited from earlier work
T1 construct: expressed in transfected cells; host or cells: Xenopus laevis oocytes injected with mRNA (subunit ratio 1:1:2)

humans = conditions: literature (Arden et al. 1986); cited from earlier work
[5] = tested on: critically ill trauma patients; conditions: critically ill trauma patients sedated with etomidate vs. benzodiazepines (28%); Watt and Ledingham 1984; cited from earlier work
rats [6] = assay: Rat adrenocortical suppression (ACTH1-24-stimulated serum corticosterone); conditions: IV bolus 2×ED50 (14 mg/kg carboetomidate, 2 mg/kg etomidate), 15 min after ACTH1-24
Protocol: Immediately after weighing and IV catheter placement, dexamethasone (0.2 mg/kg IV; American Regent, Shirley, N.Y.) was administered to each rat to inhibit endogenous adrenocorticotropic hormone (ACTH) release, to suppress baseline corticosterone production, and to inhibit the variable stress response to restraint and handling. […] The concentrations of carboetomidate and etomidate in DMSO were 40 and 5.7 mg/ml, respectively. Immediately after hypnotic or vehicle administration, ACTH1-24 (25 μg/kg; Sigma-Aldrich Chemical Co, St. Louis, Mo.) was given intravenously to stimulate corticosterone production. Fifteen minutes later, a second blood sample was drawn to measure the ACTH1-24-stimulated serum corticosterone concentration. ACTH1-24 was dissolved in 1 mg/ml of deoxygenated water as stock, aliquoted, and frozen (−20° C.); a fresh aliquot was thawed just before each use. Rats in all three groups (carboetomidate, etomidate, and vehicle) received the same volume of DMSO (350 μl/kg).
Blood samples were allowed to clot at room temperature (10-60 min) before centrifugation at 3,500 g for 5 min. Serum was carefully expressed from any resulting superficial fibrin clot using a clean pipette tip before a second centrifugation at 3,500 g for 5 min. After the second centrifugation, the resultant clot-free serum layer was transferred to a fresh vial for a final, high-speed centrifugation (16,000 g, for 5 min) to pellet any contaminating red blood cells or particulates. The serum was transferred to a clean vial and promptly frozen (−20° C.) pending corticosterone measurement. After thawing and heat inactivation of corticosterone-binding globulins (65° C. for 20 min), serum baseline and ACTH1-24-stimulated corticosterone concentrations were quantified using an enzyme-linked immunosorbent assay (Diagnostic Systems Laboratories, Webster, Tex.) and a 96-well plate reader (Molecular Devices, Sunnyvale, Calif.).
Male Sprague Dawley rats were pre-treated with dexamethasone to inhibit endogenous ACTH production and minimize baseline serum corticosterone concentrations. […]

Xenopus laevis tadpoles [7] = assay: Tadpole loss of righting reflex (LORR) assay; type: in vivo
Protocol: Tadpoles: Groups of five early prelimb-bud stage Xenopus laevis tadpoles were placed in 100 ml of oxygenated water buffered with 2.5 mM Tris HCl buffer (pH. 7.4) and containing a concentration of carboetomidate ranging from 1 to 40[…]. Tadpoles were tipped manually every 5 min with a flame-polished pipette until the response stabilized. […] At the end of each study, tadpoles were returned to fresh water to ensure reversibility of hypnotic action. The EC50 for LORR was determined from the carboetomidate concentration dependence of LORR using the method of Waud D R, J Pharmacol Exp Ther (1972) 183: 577-607, content of which is herein incorporated by reference.
Tadpoles: The tadpole loss of righting reflex assay was used to test for anesthetic activity. Groups of 5 early prelimb-bud stage Xenopus laevis tadpoles were placed in 100 ml of oxygenated water buffered with 2.5 mM Tris HCl buffer (pH=7) and containing a concentration of carboetomidate ranging from 1-40 μM. See Scheme 1, above, for structure of Carboetomidate. Tadpoles were tipped manually every 5 min with a flame polished pipette. […] At all concentrations, this loss of righting reflex response stabilized within 30 min of carboetomidate exposure. At the end of each study, tadpoles were returned to fresh water to ensure reversibility of hypnotic action.

[8] = molecular target: T1, human α1β2γ2L GABAA receptors; assay: GABAA receptor electrophysiology, wild-type receptors in Xenopus oocytes (two-electrode voltage clamp); type: cell-based; conditions: 10 μM compound
Protocol: Adult female Xenopus laevis frogs were anesthetized with 0.2% tricaine (ethyl-m-aminobenzoate) and hypothermia. Ovary lobes were then excised through a small laparotomy incision and placed in OR-2 solution (82 mM NaCl, 2 mM KCl, 2 mM MgCl2, 5 mM HEPES, pH 7.5) containing collagenase 1A (1 mg/ml) for 3 h to separate oocytes from connective tissue.
Stage 4 and 5 oocytes were injected with messenger RNA encoding the α1, β2 (or β2M286W), and […] subunits of the human GABAA receptor (˜40 ng of messenger RNA total at a subunit ratio of 1:1:2). […]
All electrophysiologic recordings were performed using the whole cell two-electrode voltage-clamp technique. […] Current responses were recorded using Clampex 9.2 software (Axon Instruments) and processed using a Bessel (8-pole) low-pass filter with a cutoff at 50 Hz using Clampfit 9.2 software (Axon Instruments).
For each oocyte, the concentration of GABA that produces 5-10% of the maximal current response (EC5-10 GABA) was determined by measuring the peak current responses evoked by a range of GABA concentrations (in ND-96 buffer) and comparing them with the maximal peak current response evoked by 1 mM GABA. The effect of carboetomidate on EC5-10 GABA-evoked currents was then assessed by first perfusing the oocyte with EC5-10 GABA for 90 s and then measuring the control peak evoked current. […]

[9] = molecular target: T2, etomidate-insensitive mutant α1β2M286Wγ2L GABAA receptors (Homo sapiens, UniProt P14867+P47870, M310W); assay: GABAA receptor electrophysiology, etomidate-insensitive mutant receptors in Xenopus oocytes; type: cell-based; conditions: 10 μM compound
T2 construct: expressed in transfected cells; host or cells: Xenopus laevis oocytes injected with mRNA (subunit ratio 1:1:2)
T2 sequence (P47870 26-512 M310W): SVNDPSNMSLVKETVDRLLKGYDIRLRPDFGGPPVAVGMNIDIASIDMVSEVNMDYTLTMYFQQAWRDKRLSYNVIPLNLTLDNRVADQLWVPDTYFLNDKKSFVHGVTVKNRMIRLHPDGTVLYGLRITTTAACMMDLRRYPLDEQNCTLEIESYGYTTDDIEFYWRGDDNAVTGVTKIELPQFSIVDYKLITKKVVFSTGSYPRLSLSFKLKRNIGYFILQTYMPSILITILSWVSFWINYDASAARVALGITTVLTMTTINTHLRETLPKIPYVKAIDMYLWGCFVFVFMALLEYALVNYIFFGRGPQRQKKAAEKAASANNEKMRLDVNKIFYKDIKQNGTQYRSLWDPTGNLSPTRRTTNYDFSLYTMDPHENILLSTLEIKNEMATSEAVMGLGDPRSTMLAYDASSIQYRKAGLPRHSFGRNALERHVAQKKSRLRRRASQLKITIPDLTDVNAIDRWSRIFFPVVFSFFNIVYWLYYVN
T2 sequence (P14867 28-456): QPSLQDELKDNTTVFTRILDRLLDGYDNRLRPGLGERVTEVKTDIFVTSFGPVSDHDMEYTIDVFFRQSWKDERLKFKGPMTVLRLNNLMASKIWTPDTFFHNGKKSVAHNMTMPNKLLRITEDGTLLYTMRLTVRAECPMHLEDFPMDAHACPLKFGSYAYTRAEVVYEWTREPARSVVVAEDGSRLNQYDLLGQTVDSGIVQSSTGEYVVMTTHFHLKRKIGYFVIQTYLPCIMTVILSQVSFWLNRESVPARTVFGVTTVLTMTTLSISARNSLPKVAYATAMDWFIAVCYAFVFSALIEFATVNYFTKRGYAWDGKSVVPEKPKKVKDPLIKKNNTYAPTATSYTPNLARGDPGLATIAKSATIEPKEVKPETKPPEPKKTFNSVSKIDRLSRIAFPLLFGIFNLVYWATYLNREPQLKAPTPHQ
T2 sequence (P18507 40-475 partner): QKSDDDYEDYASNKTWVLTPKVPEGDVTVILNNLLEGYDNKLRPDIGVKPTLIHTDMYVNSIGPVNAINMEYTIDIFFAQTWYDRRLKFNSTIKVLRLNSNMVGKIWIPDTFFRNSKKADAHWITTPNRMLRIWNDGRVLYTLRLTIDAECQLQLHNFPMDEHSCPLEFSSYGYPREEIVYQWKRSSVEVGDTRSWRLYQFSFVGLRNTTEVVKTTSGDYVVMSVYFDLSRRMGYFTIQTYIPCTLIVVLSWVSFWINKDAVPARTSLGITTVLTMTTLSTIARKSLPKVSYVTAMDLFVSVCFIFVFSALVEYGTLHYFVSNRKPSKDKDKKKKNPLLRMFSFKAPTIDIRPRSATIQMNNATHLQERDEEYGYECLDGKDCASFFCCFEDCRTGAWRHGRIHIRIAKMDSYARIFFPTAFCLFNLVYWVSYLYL
Protocol: Stage 4 and 5 oocytes were injected with messenger RNA encoding the α1, β2 (or β2M286W), and γ21 subunits of the human GABAA receptor (˜40 ng of messenger RNA total at a subunit ratio of 1:1:2). This messenger RNA was transcribed from complementary DNA encoding for GABAA receptor α1, β2 (or β2M286W), and γ21 subunits using the mMESSAGE mMACHINE High Yield Capped RNA Transcription Kit (Ambion, Austin, Tex.). Injected oocytes were incubated in ND-96 buffer solution (96 mM NaCl, 2 mM KCl, 1 mM CaCl2, 0.8 mM MgCl2, 10 mM HEPES, pH 7.5) containing 50 U/ml of penicillin and 50 μg/ml of streptomycin at 17° C. for at least 18 h before electrophysiologic experiments.
For each oocyte, the concentration of GABA that produces 5-10% of the maximal current response (EC5-10 GABA) was determined by measuring the peak current responses evoked by a range of GABA concentrations (in ND-96 buffer) and comparing them with the maximal peak current response evoked by 1 mM GABA. […]

T1 sequence (P47870 25-512 limits assumed): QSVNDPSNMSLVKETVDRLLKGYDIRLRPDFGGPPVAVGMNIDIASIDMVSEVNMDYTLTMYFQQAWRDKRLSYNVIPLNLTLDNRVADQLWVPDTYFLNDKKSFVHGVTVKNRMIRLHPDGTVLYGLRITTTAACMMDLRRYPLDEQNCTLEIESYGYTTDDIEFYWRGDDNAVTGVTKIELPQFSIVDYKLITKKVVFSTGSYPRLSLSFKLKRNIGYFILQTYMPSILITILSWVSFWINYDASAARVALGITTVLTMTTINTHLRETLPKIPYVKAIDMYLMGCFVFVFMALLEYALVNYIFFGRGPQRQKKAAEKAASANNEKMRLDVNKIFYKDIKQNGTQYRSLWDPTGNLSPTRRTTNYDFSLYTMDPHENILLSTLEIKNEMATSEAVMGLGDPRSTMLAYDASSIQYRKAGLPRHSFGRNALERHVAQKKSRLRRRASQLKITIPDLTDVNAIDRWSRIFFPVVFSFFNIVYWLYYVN
T1 sequence (P14867 28-456): as the sequence (P14867 28-456) above
T1 sequence (P18507 40-475 partner): as the sequence (P18507 40-475 partner) above

| Compound | effect on mean blood pressure, comparison of three anesthetics (FIG. 7A) (rats [1]) | anesthetic toxicity in rats (rats [2]; IV bolus) | slope of duration of anesthesia versus logarithm of anesthetic dose (rats [2]; rats, IV bolus) | onset time for LORR (rats [2]; rats) [s] | onset time for LORR, range (rats [2]; rats) [s] | time to LORR after IV bolus (in words) (rats [2]; rats) | effect on mean blood pressure relative to DMSO vehicle (FIG. 7B) (rats [1]) | ACTH1-24-stimulated serum corticosterone concentration versus vehicle (in words) (rats [6]) | other results |
| --- | --- | --- | --- | --- | --- | --- | --- | --- | --- |
| CC(C)c1cccc(C(C)C)c1O [propofol, reference compound] | mean blood pressure decreased | – | – | – | – | – | – | – | – |
| CCOC(=O)c1cncn1C(C)c1ccccc1 (stereo not shown) [etomidate, ethyl 3-(1-phenylethyl)imidazole-4-carboxylate] | magnitude of this decrease was less | no obvious anesthetic toxicity | 27±7 | 4.5 ± 0.6 | 4 to 5 | within several seconds | significantly reduced mean blood pressure relative to vehicle | significantly reduced | ED50 (rats [2]; Rattus norvegicus, rats, IV bolus, read-out: ED50 for LORR following bolus administration): 1 ± 0.03 mg/kg; concentration inducing loss of righting reflex in tadpoles (Xenopus laevis tadpoles [3]): ~2 µM; magnitude of potentiation of GABAA receptor currents [4]: 660±240%; concentration inducing loss of responsiveness in humans (humans): ~2 µM; mortality [5]: 77% |
| (R)-1-(1-phenylethyl)-1H-pyrrole-2-carboxylate [carboetomidate] | magnitude of this decrease was less; also recorded: depresses blood pressure significantly less than propofol or etomidate | no obvious anesthetic toxicity | 16±4 | 33 ± 22 | 10 to 63 | within several seconds | not significantly greater than that of DMSO vehicle alone | not different from those that had received only vehicle; also recorded: relatively unchanged versus vehicle | toxicity in tadpoles (Xenopus laevis tadpoles [7]; 1-40 μM, recovery in fresh water): No evidence of toxicity was observed; EC50 (Xenopus laevis tadpoles [7]; LORR, Xenopus laevis tadpoles, quantal method of Waud, read-out: anesthetic EC50 (concentration at which 50% of tadpoles were anesthetized)): 5.4 ± 0.5 µM; time for LORR response to stabilize (Xenopus laevis tadpoles [7]; all concentrations (1-40 μM)): ≤ 30 min; fraction of tadpoles anesthetized (Xenopus laevis tadpoles [7]; highest concentrations, 10-40 μM): all tadpoles were anesthetized; ED50 for LORR following bolus administration (rats [2]; rats, IV bolus): 7 ± 2 mg/kg; enhancement of amplitudes of GABA-evoked currents ([8]; 3 μM GABA, wild-type): 4 fold; enhancement (potentiation) of currents mediated by wild-type receptors ([8]; EC5-10 GABA): 390±80%; effect on amplitude of GABA-evoked currents ([9]; 0.3 μM GABA, mutant M286W): little effect; enhancement of currents mediated by etomidate-insensitive mutant receptors ([9]; EC5-10 GABA): −9±16% |
